The subject of experiment [1] is SHC. Put plainly: SHC tyrosine phosphorylation in Rat-1/EP-R cells. The format is cell-based. To be noted: tyrphostin pretreatment (AG1478 250 nM, AG1295 1 μM), FIG. 1e.
For experiment [2], the system named is human EGFR (HERc). The experiment is described as follows: Intercellular transactivation: HERc tyrosine phosphorylation in Rat-1/M1R + Rat-1/HERc co-culture. To be noted: carbachol 1 mM; for effect on EGFR (HERc) tyrosine phosphorylation in response to M1R agonist carbachol: confluent co-cultures of Rat-1/M1R and Rat-1/HERc cells, preincubation, FIG. 2b, 2c. The format is cell-based.

For experiment [3], the system named is proHB-EGF. The experiment is described as follows: Flow cytometry of cell surface proHB-EGF in non-transfected COS-7 cells. The format is cell-based. To be noted: within 10 minutes, FIG. 4c. On the technique in general: In flow cytometry, cells or beads pass a laser one at a time.
Experiment [4] deals with EGFR. The experiment is described as follows: EGFR tyrosine phosphorylation in PC-3 prostate carcinoma cells. Format: cell-based, human. The following applies: PC-3 cells starved for 36 hours; 3 minutes stimulation; FIG. 4f.
The test system of experiment [5] is proHB-EGF. Format: cell-based.

The values that follow come from patent publication US7632645B1, “EGF receptor transactivation by G-protein-coupled receptors requires metalloproteinase cleavage of proHB-EGF” (Max-Planck-Gesellschaft zur forderung der Wissenschaften …, priority 1999, dated 2009).

`Cc1cc2ncc(-c3ccccc3)nc2cc1C` [AG1295]: the “effect on SHC tyrosine phosphorylation following thrombin stimulation” value in experiment [1] is “remained unaffected”.

For the molecule `[O-][Cl+2]([O-])O` [chlorate], the “effect on EGFR (HERc) tyrosine phosphorylation in response to M1R agonist carbachol” value in experiment [2] is recorded as “completely inhibited”.

On to lysophosphatidic acid [LPA], for which the “content of cell surface proHB-EGF after addition of agonist” value (from here on “content of cell surface proHB-EGF”) in experiment [3] is recorded as “reduced”.

As to “EGF: epidermal growth factor, EGFR ligand used as control stimulus (NSDSECPLSHDGYCLHDGVCMYIEALDKYACNCVVGYIGERCQYRDLKWWELR; UniProt P01133 971-1023, looked up)”, the “content of cell surface proHB-EGF” value in experiment [3] was “no effect”. Moreover, in experiment [4], the “induction of tyrosine phosphorylation of the EGFR by agonist” value is on record as “induce tyrosine phosphorylation”.

With `C[N+](C)(C)CCOC(N)=O` [carbachol], in experiment [2] (Rat-1/M1R + Rat-1/HERc co-culture, FIG. 2a), the “induction of tyrosine phosphorylation of HERc by agonist” value is given as “rapidly induced tyrosine phosphorylation”. Moreover, the “proteolytic processing of membrane-anchored proHB-EGF upon agonist stimulation” value in experiment [5] was “rapid breakdown”.

In the case of heparitinase, in experiment [2], the “effect on EGFR (HERc) tyrosine phosphorylation in response to M1R agonist carbachol” value is on record as “completely inhibited”.

With `CCCCCCCCCCCCCC(=O)O[C@@H]1[C@@H](C)[C@@]2(O)[C@@H](C=C(CO)C[C@]3(O)C(=O)C(C)=C[C@@H]23)[C@@H]2C(C)(C)[C@]12OC(C)=O` [TPA, tetradecanoyl-phorbol-13-acetate], the “content of cell surface proHB-EGF” value in experiment [3] is listed as “reduced”. For the same molecule, in experiment [4], the “induction of tyrosine phosphorylation of the EGFR by agonist” value is “induce tyrosine phosphorylation”.

`COc1cc2ncnc(Nc3cccc(Cl)c3)c2cc1OC` [AG1478]: the “effect on SHC tyrosine phosphorylation following thrombin stimulation” value in experiment [1] was “completely blocked”.
